Values of other authors in patent publication US20120270783A1, “Rapid opioid detoxification” (priority 2011, published 2012).
Like-named read-outs stand apart in the source and are kept apart here.

What was measured:
[1] = in vivo
[2] = test system: receptor sites; settings: relative to naloxone

Structure (SMILES) | half-life [1] | half-life ([1]; listed as Nalmefene) | receptor sites occupied, more than naloxone [2] | time to rapid awakening after discontinuation (after maintenance of anesthesia for approximately 1-10 hours at recommended doses) | time to rapid awakening after discontinuation, usual (usually, after maintenance of anesthesia for approximately 1-10 hours)
C=C1CC[C@@]2(O)[C@H]3Cc4ccc(O)c5c4[C@@]2(CCN3CC2CC2)[C@H]1O5 [nalmefene] | 10.8 h | about 10.8 hours | approximately 50% |  | 
CC(C)c1cccc(C(C)C)c1O [propofol, 2,6-diisopropyl phenol] |  |  |  | less than 20 minutes | 10 to 15 min
